Measured values reported in US7625875B2 (priority 2002, dated 2009).
“And” between values parts separate entries of the source, which are not always exact repeats. Equal entries are not always repeated. Where two headings read alike, the source gives them in different places.

What was measured:
[1] = test system: BVDV New York-1 (NY-1) strain; experiment: MDBK cells persistently infected with BVDV strain New York-1, virus titer; format: cell-based, bovine viral diarrhea virus; settings: 8 μM alone, after one passage
[2] = test system: BVDV (strain I-N-dIns), noncytopathic; format: cell-based, bovine viral diarrhea virus
in vitro [3] = settings: hamster
West Nile Virus = experiment: microbe, parasite or virus in culture; format: cell-based; settings: BHK
Sb-1 = experiment: organism not typed; format: cell-based, Sabin type 1 poliomyelitis virus
[4] = Stability in human plasma; settings: 37° C.
BVDV RNA = experiment: Intracellular BVDV RNA by Real Time RT-PCR in de novo-infected MDBK cells; format: cell-based, bovine viral diarrhea virus
HepG2 cells [5] = experiment: Cellular DNA synthesis, [3H]-thymidine incorporation; settings: read-out: CC50 DNA ([3H]Thymidine); 50% reduction of thymidine incorporation into cellular DNA
[6] = test system: LLC-MK2, Rhesus monkey kidney cells; settings: Punta Toro A line
BVDV = format: cell-based, bovine viral diarrhea virus; settings: for EC4 log: MDBK
MCMV = experiment: Antiviral activity, MCMV (MEF); format: cell-based
HSV-2 = experiment: Antiviral activity, HSV-2 (HFF); format: cell-based; settings: Human alphaherpesvirus 2
Influenza A/H3N2 = experiment: Antiviral activity, Influenza A/H3N2 (MDCK); format: cell-based; settings: Influenza A virus
Rhinovirus type 2 = experiment: microbe, parasite or virus in culture; format: cell-based; settings: Enterovirus
[7] = test system: HeLa, human cervical adenocarcinoma cells; experiment: Cytotoxicity, HeLa-Ohio; format: cell-based; settings: Rhinovirus type 14 line
[8] = test system: KB, human nasopharyngeal carcinoma; experiment: Cytotoxicity, KB; format: cell-based
VEE = experiment: microbe, parasite or virus in culture; format: cell-based; settings: Venezuelan equine encephalitis virus, Vero
in vitro [9] = settings: African green monkey
REO-1 = experiment: microbe, parasite or virus in culture; format: cell-based, double-stranded RNA Reovirus; settings: Reovirus sp., read-out: REO
[10] = test system: A549, Human lung carcinoma cells; experiment: Cytotoxicity, A549; format: cell-based; settings: Adenovirus type 1 line
HepG2 cells [11] = experiment: Mitochondria toxicity assay, lactic acid production, HepG2; settings: for L-Lactate (% of Control): 4 days
[12] = test system: human cytidine/deoxycytidine deaminase enzymes; settings: 37° C.
VZV = experiment: Antiviral activity, VZV (HFF); format: cell-based; settings: Human alphaherpesvirus 3
HSV-1 = experiment: Antiviral activity, HSV-1 (HFF); format: cell-based; settings: Human alphaherpesvirus 1
Adenovirus type 1 = experiment: Antiviral activity, Adenovirus type 1 (A549); format: cell-based; settings: Human mastadenovirus C
[13] = test system: MT-4 human T-lymphocyte cells; settings: human
[14] = test system: MA-104, Rhesus monkey kidney cells; experiment: Cytotoxicity, MA-104; settings: Parainfluenza type 3 line
[15] = Cytotoxicity (cell proliferation) assay, HepG2; settings: human, HepG2 cells
[16] = test system: HepG2 human hepatoma cell line; experiment: Cytotoxicity (cell proliferation) assay, HepG2; settings: cells grown on collagen coated plates for 4 or 10 d
[17] = test system: MEF mouse embryo fibroblasts; experiment: Cytotoxicity assay, MEF; settings: MCMV (MEF) line
Huh7 cells = experiment: Mitochondria toxicity assay, lactic acid production, Huh7; settings: 4 days
Polio Virus Sb-1 = experiment: organism not typed; format: cell-based; settings: Vero
Influenza B = experiment: Antiviral activity, Influenza B (MDCK); format: cell-based; settings: Influenza B virus
HepG2 cells [18] = experiment: Incorporation of drug into cellular RNA and DNA; settings: 10 μM [3H] drug, 30 hours
HepG2 cells [19] = experiment: Mitochondrial DNA content; format: cell-based, human
Procedure: To assess the potential of mCyd to produce mitochondrial toxicity, several in vitro studies were conducted using the human hepatoma cell lines HepG2 or Huh7.
The significance of this finding is unclear, particularly since mCyd is unlikely to attain a plasma concentration of 50 μM in the clinic. For comparison, lactic acid production increases by 100% over control cells in cells treated with 10 μM FIAU (Cui L, Yoon, et al. J. Clin. Invest. 1995; 95:555-563).

HepG2 cells [20] = experiment: Cellular RNA synthesis, [3H]-uridine incorporation; settings: read-out: CC50 RNA ([3H]Uridine); 50% reduction of uridine incorporation into cellular RNA
Influenza A/H1N1 = experiment: Antiviral activity, Influenza A/H1N1 (MDCK); format: cell-based; settings: Influenza A virus

CC1(O)C(O)C(CO)OC1n1ccc(N)nc1=O (stereo not drawn) [mCyd, 4-Amino-1-(3,4-dihydroxy-5-hydroxymethyl-3-methyl-tetrahydro-furan-2-yl)-1H-pyrimidine-2-one]
reduction of viral titers [1]: approximately 3.5 log10 | reduction of BVDV titer ([2]; 4 μM, one cell passage (3 days)): approximately 3 log10 | reduction of virus production ([2]; 8 μM): 6.2 log10 | virus production ([2]; 16 μM, within two cell passages, from more than 6 logs of virus per ml): undetectable levels | CC50 (in vitro [3]): > 100 µM | EC50 (West Nile Virus): 63 to 97 µM | EC50 (Sb-1; read-out: EC50 Sb-1): 6 µM | EC50 (Sb-1; read-out: Sb-1): 11.5 µM | in vitro stability, deamination to mUrd [4]: remained essentially unchanged | effect on the level of the rig S15 cellular mRNA control (BVDV RNA): No effect | maximum viral RNA reduction (BVDV RNA; highest inhibitor concentration tested (125 μM)): 4 log10 | CC50 (HepG2 cells [5]): 112 ± 34.5 µM | CC50 [6]: > 200 µM | EC4 log (BVDV; BVDV I-N-dIns ncp (recombinant)): 7.14 μM | EC4 log (BVDV; BVDV I-NADL cp (recombinant)): 8.22 μM | suppression of de novo BVDV production (BVDV; subcytotoxic concentrations (circa 20 μM)): up to 6 logs | EC50 (MCMV): > 0.8 µM | EC50 (HSV-2): > 100 µg/mL | EC50 (Influenza A/H3N2): > 20 µM | EC50 (Rhinovirus type 2): 2 to 10 µM | CC50 [7]: 20->100 μg/mL | CC50 ([8]; Rhinovirus type 2 line, read-out: CC50): > 200 µM | CC50 ([8]; Rhinovirus type 5 line): 20 to 30 µg/mL | EC50 (VEE): 1.3 to 45 µM | CC50 (in vitro [9]): > 100 µM | EC50 (REO-1): 13 µM | CC50 [10]: > 200 µM | L-Lactate (% of Control) (HepG2 cells [11]; 10 μM): 98.6 ± 7.3 % of Control | increase in lactic acid production (HepG2 cells [11]; 50 μM): 38% | L-Lactate (% of Control) (HepG2 cells [11]; 50 μM): 138.0 ± 8.9 % of Control | in vitro stability, deamination to mUrd [12]: remained essentially unchanged | EC50 (VZV): > 20 µg/mL | EC50 (HSV-1): > 100 µg/mL | EC50 (Adenovirus type 1): > 200 µM | CC50 [13]: 34 µM | CC50 [14]: > 200 µM | CC50 [15]: 200 µM | CC50 [16]: > 200 µM | CC50 [17]: 2.4 µM | L-Lactate (% of Control) (Huh7 cells; 10 μM): 98.0 ± 12.3 % of Control | L-Lactate (% of Control) (Huh7 cells; 50 μM): 97.1 ± 10.1 % of Control | EC50 (Polio Virus Sb-1): 6 µM | EC50 (Influenza B): > 200 µM | Incorporated drug amount, DNA (HepG2 cells [18]): 0.0013 pmole/μg DNA and 0.0013 ± 0.0008^a pmole/μg DNA | Incorporated drug amount, RNA (HepG2 cells [18]): 0.0014 pmole/μg RNA and 0.0014 ± 0.0008^a pmole/μg RNA | mtDNA/nuclear DNA (% of Control) (HepG2 cells [19]; 10 μM, 6 day treatment): 117.3 ± 17.5 % of Control | mtDNA/nuclear DNA (% of Control) (HepG2 cells [19]; 10 μM, 14 day treatment): 99.7 ± 23.9 % of Control | mtDNA/nuclear DNA (% of Control) (HepG2 cells [19]; 50 μM, 6 day treatment): 158.2 ± 17.5 % of Control | mtDNA/nuclear DNA (% of Control) (HepG2 cells [19]; 50 μM, 14 day treatment): 83.0 ± 15.5 % of Control | CC50 (HepG2 cells [20]): 186 ± 28.2 µM | EC50 (Influenza A/H1N1): > 200 µM
